Ends that are not written are not given here.
Assays:
[1] = system: vasodilation evoked by capsaicin; assay: Capsaicin-evoked vasodilation in pig nasal mucosa in vivo
Protocol: Experiments were performed on pigs of both sexes (body weight 18-25 kg). All animals were premedicated with atropine (0.05 mg/kg) and ketamine (20 mg/kg i.m.). They were anesthesized with thiopentone (5 mg/kg i.v.). After tracheostomy, animals were intubated and artificially ventilated by a volume regulated ventilator. During surgery, animals were given a continuous i.v. infusion of Ringer's solution, pancuronium bromide (0.25 mg/kg) and heparin. […] Catheters were placed in the femoral artery for systemic blood pressure and heart rate monitoring and in the femoral vein for thiopentone, heparin and fluid administration (300 ml/hr). The contralateral femoral vein was canulated for blood sampling. […] Selective recording of the nasal arterial blood flow was performed with a Transonic flow probe (probe 2.4RB143) of 2.4 mm diameter placed around the sphenopalatine artery. The flow probe was connected to a T202S ultrasonic blood flowmeter. All the arterial branches situated downstream of the flow probe were ligated and cut except for the superficial temporal artery which was cannulated with a PE 90 catheter for infusions or injections.
(§2) Variations in the area under the curve (AUC) of the sphenopalatine artery vascular resistance (Vr), derived from both mean arterial blood pressure and systemic blood flow curves, were analyzed over time. Durations of the responses of the vascular resistance were compared and all results were expressed in percent of baseline. Vascular parameters were recorded simultaneously using a 6 pen trace recorder.
(§3) All animals were intranasally administered DPIV (50 μg, 26.5 pmoles/kg), subjected to sympathetic nerve stimulation (SNS, 15 V, 5 ms, 10 Hz for 2 minutes) and then infused with histamine (0.1-25 μg), capsacin (0.01-25 μg), bradykinin (0.001-10 μg), SP or its C-terminal fragment SP 5-11, DPPIV, or NK1 antagonist L733060 in the superficial temporal artery under controlled conditions. In each case, the vascular response of the animal was measured. This entire procedure was then repeated after local i.a. pretreatment with the alpha-adrenergic receptor antagonist phenoxybenzanime (1 mg/kg).

[2] = system: histamine vasodilatory effects; assay: Histamine-evoked vasodilation in pig nasal mucosa in vivo; details: no DPPIV
Protocol: (§1) Each experiment lasted approximately 8 hours.

[3] = Basal vascular parameters in the anaesthetised pig in vivo (blood flow, heart rate, MAP, vascular resistance)
Protocol: as §1
The basal blood flow in the internal maxillary artery of the pig under control conditions was 4.92+/−0.7 ml min^−1 kg^−1. After section of the sympathetic nerves on the left side, the homolateral nasal arterial flow was 6.1+/−0.26 ml min^−1 kg^−1 (representing a 19.34% +/−4.3% increase). The mean arterial blood pressure (MAP) was not modified by the section of the sympathetic nerves. […] Sympathetic nerve stimulation at 10 Hz for 5 minutes reduced the blood flow in the maxillary artery from 4.92+/−0.7 ml min^−1 kg^−1 to 1.40+/−0.47 ml min^−1 kg^−1, representing an […] of 71.5% and lasting more than 6 minutes. The i.a. infusion of phenoxybenzamine induced a MAP reduction of 10+/−2%.

[4] = system: SP-evoked vasodilatory response; assay: Modulation of SP-evoked vasodilation in pig nasal mucosa in vivo; details: pretreatment 114 nmoles/kg; all doses of SP used except 100 ng
Protocol: Experiments were performed on pigs of both sexes (body weight 18-25 kg). All animals were premedicated with atropine (0.05 mg/kg) and ketamine (20 mg/kg i.m.). They were anesthesized with thiopentone (5 mg/kg i.v.). After tracheostomy, animals were intubated and artificially ventilated by a volume regulated ventilator. During surgery, animals were given a continuous i.v. infusion of Ringer's solution, pancuronium bromide (0.25 mg/kg) and heparin. Each experiment lasted approximately 8 hours. Catheters were placed in the femoral artery for systemic blood pressure and heart rate monitoring and in the femoral vein for thiopentone, heparin and fluid administration (300 ml/hr). The contralateral femoral vein was canulated for blood sampling. […] Selective recording of the nasal arterial blood flow was performed with a Transonic flow probe (probe 2.4RB143) of 2.4 mm diameter placed around the sphenopalatine artery. The flow probe was connected to a T202S ultrasonic blood flowmeter. […]
Variations in the area under the curve (AUC) of the sphenopalatine artery vascular resistance (Vr), derived from both mean arterial blood pressure and systemic blood flow curves, were analyzed over time. […] Vascular parameters were recorded simultaneously using a 6 pen trace recorder. […]

[5] = system: sphenopalatine vascular resistance; assay: Vasodilator dose-response of SP and SP 5-11 in pig in vivo; details: for reduction in SVR: before DPPIV
Protocol: Experiments were performed on pigs of both sexes (body weight 18-25 kg). All animals were premedicated with atropine (0.05 mg/kg) and ketamine (20 mg/kg i.m.). They were anesthesized with thiopentone (5 mg/kg i.v.). After tracheostomy, animals were intubated and artificially ventilated by a volume regulated ventilator. During surgery, animals were given a continuous i.v. infusion of Ringer's solution, pancuronium bromide (0.25 mg/kg) and heparin. Each experiment lasted approximately 8 hours. Catheters were placed in the femoral artery for systemic blood pressure and heart rate monitoring and in the femoral vein for thiopentone, heparin and fluid administration (300 ml/hr). The contralateral femoral vein was canulated for blood sampling. Surgical preparation of the internal maxillary artery was done in accordance with Lacroix (Acta Physiol. Scand. 136:1-63 (1989)). Selective recording of the nasal arterial blood flow was performed with a Transonic flow probe (probe 2.4RB143) of 2.4 mm diameter placed around the sphenopalatine artery. The flow probe was connected to a T202S ultrasonic blood flowmeter. All the arterial branches situated downstream of the flow probe were ligated and cut except for the superficial temporal artery which was cannulated with a PE 90 catheter for infusions or injections.
as §2, §3
Therefore, the same animal was used to perform dose-response curves with SP both before and after pretreatment with DPPIV. A dose-response curve for duration of vasodilation and area under the curve was constructed using doses of SP in the range of 1 pg to 0.1 μg. […] The same animals received 50 μg (530 pmoles) of DPPIV and similar doses of SP were injected. […] Since DPPIV cleaves SP into SP 5-11, experiments were conducted to determine whether SP 5-11 is also capable of decreasing SVR.

[6] = SNS and PBZ pretreatment, no DPPIV, capsaicin 8.2×10^−08 moles

In the case of COc1cc(CNC(=O)CCCCC=CC(C)C)ccc1O [Capsaicin, 8-methyl-N-vanillyl-6-nonenamide], the “effect of capsaicin injection on Vr” value ([1]; following SNS, similar to control conditions) is reported as “dose-dependent decrease of Vr”.

In the case of NCCc1c[nH]cn1 [Histamine], the “reduction in duration of histamine effect vs control” value ([2]; histamine i.a. 1.4×10^−07 moles following SNS 10 Hz 5 minutes) is reported as 32% and the “reduction in duration of histamine effect vs control” value ([2]; histamine i.a. 5.4×10^−09 moles following SNS 10 Hz 5 minutes) is reported as 33%.

With FC(F)(F)c1cc(CO[C@H]2CCCN[C@H]2c2ccccc2)cc(C(F)(F)F)c1 [L-733060] the “vascular effect of the antagonist” value ([3]; pretreatment with 114 nmoles/kg) was “vasoconstrictive effect” and the “blockade of SP-induced decrease in SVR” value [4] was “clear inhibition of the SP effect”.

For CC(COc1ccccc1)N(CCCl)Cc1ccccc1 (centres unmarked) [phenoxybenzamine], the MAP reduction ([3]; i.a. infusion of phenoxybenzamine) was 10+/−2%, the “reduction of AUC of capsaicin effect” value [1, 6] was 26.6% and the “reduction of duration of vasodilation evoked by capsaicin” value [1, 6] was 39.9%. The “variation of vasodilatory effect of capsaicin” value ([1]; after SNS and PBZ pretreatment, any doses, no DPPIV) was “no significant variation”.

In the case of “SP 5-11: C-terminal fragment of SP produced by DPPIV cleavage (QQFFGLM; ends and bridges not checked; UniProt P20366 62-68, looked up, fragment)”, the “decrease in SVR” value ([5]; SP 5-11 10 pg) is reported as 5%, the “decrease in SVR” value ([5]; SP 5-11 1 μg) is reported as 35% and the “SP 5-11 less potent than SP at causing vasodilation” value ([5]; pig, in vivo) is reported as “at least 100 fold”.

For “SP: substance P, bioactive peptide released by sensory neurons; NK1 agonist”, the “reduction in SVR” value ([5]; SP 100 pg) was 13.1%, the “reduction in SVR” value ([5]; SP 1 ng) was 14.9% and the “potency of SP relative to SP 5-11 as a vasodilator” value ([5]; based on molarity) was 200 fold. The vasodilation ([5]; local intraarterial administration of 1 pg SP) was 15.1% +/−3.3% and the vasodilation ([5]; local intraarterial administration of 100 ng SP) was 37.3% +/−3.3%.
